Test results as given in paper PMC9387934, “Randomized single oral dose phase 1 study of safety, tolerability, and pharmacokinetics of Iminosugar UV-4 Hydrochloride (UV-4B) in healthy subjects” (PLoS Neglected Tropical Diseases, 2022).
Like-named read-outs stand apart in the source and are kept apart here.

Test: Phase 1a single ascending dose study: UV-4 plasma concentrations and PK parameters (LC-MS/MS, noncompartmental)
Type: in vivo
Settings: for Tmax / half-life / AUC(0-inf) / Cmax: both sexes, human, plasma; for AUC(0-inf): read-out: AUC(0-inf); for Cmax: read-out: Cmax
Procedure: UV-4 ((2R,3R,4R,5S)-2-(hydroxymethyl)-1-(9-methoxynonyl)piperidine-3,4,5-triol, also called N-(9’-methoxynonyl)-1-deoxynojirimycin, or MON-DNJ) hydrochloride was evaluated in a first-in-human, randomized, single-center, double-blind, placebo-controlled, parallel group, single ascending dose Phase 1a clinical trial in healthy subjects (Figs 1 and 2, ClinicalTrials.gov Identifier NCT02061358 https://clinicaltrials.gov/ct2/show/NCT02061358). The primary objective was to determine the safety and tolerability of a single-ascending oral dose of UV-4 hydrochloride (Fig 3). […] The secondary objective was to determine PK parameters describing absorption and elimination of UV-4 following a single oral dose of UV-4 hydrochloride. Eight cohorts of eight subjects each were enrolled and completed the study. In each cohort, six subjects received UV-4 as the hydrochloride; two received placebo. Subjects were screened against study eligibility criteria up to four weeks (Days -28 to -2) before admission to the clinic (Day -1). Dosing was performed on an inpatient basis. Subjects remained in clinic for 48 hours post-dosing for PK sample collection and safety assessments and were discharged from the clinic on Day 3. Subjects returned to the clinic on Day 4 for additional safety assessments, then again on Day 9 ± 1 for a final follow-up visit.
Eligible subjects were healthy males and females, age 18–45 years, with a body mass index between 18 and 30 kg/m^2 inclusive and a minimum body weight of 60 kg. Subjects were considered healthy based on medical history, physical exam, vital signs, 12-lead electrocardiogram (ECG), clinical laboratory tests (hematology, blood chemistry, urinalysis), viral serology, and drug and alcohol screening. Male and female subjects of childbearing potential were required to use adequate contraception over the course of the clinical trial. […] Only subjects who met all inclusion and none of the exclusion criteria prior to administration of the investigational product were enrolled into the study (no exemptions were granted). A total of 64 subjects were enrolled (eight cohorts of eight subjects each). In each of the eight cohorts, six subjects were randomized to receive a single dose of UV-4 (3 to 1000 mg, depending on cohort) as the hydrochloride salt, and two subjects to receive placebo. Cohort size of six active subjects was based on analysis that increasing cohort size above six in a first-in-human study gains little in the ability to observe a drug induced event, and results in observing more events that are not related to study drug. Two of the eight subjects in each cohort (sentinel subjects; one active and one placebo) received their doses at least 48 h before the remaining subjects in each cohort.
On each day of use, bulk drug substance (UV-4B for solubilization, SAI Life Sciences Ltd. Telangana, India) was removed from a single-use container, weighed at the study center, and solubilized in 20 mL sterile water for injection (SWFI) (Hospira Inc. Illinois, United States of America). Weight of solid drug substance was converted to dose of UV-4 by applying purity and salt correction factor per pharmacy manual when preparing the dosing solution. UV-4B solution was administered orally with 10 mL of taste-masking agent, OraSweet-SF (Paddock Laboratories LLC, Minneapolis, United States of America) in a total volume of 30 mL, to assist in maintaining study blinding. Placebo was SWFI (20 mL) plus OraSweet-SF (10 mL). Concentrations and doses were calculated and expressed as the active free base form, UV-4. This methodology is consistent with USP<1121>, which recommends that the strength of a drug product or preparation is expressed in terms of the active moiety. Following consumption of active or placebo solution, the dosing container was rinsed with 50 mL of tap water also consumed by subjects. […]

[1] = po, 3 mg, 3 mg single oral dose, Ar Mean

In the case of `COCCCCCCCCCN1C[C@H](O)[C@@H](O)[C@H](O)[C@H]1CO` [UV-4, N-(9’-methoxynonyl)-1-deoxynojirimycin], the “Time over which UV-4 plasma concentrations were quantifiable” value (3 mg, 5 of 6 subjects) was 24 h, the “Time over which UV-4 plasma concentrations were quantifiable” value (3 mg, one subject) was 36 h and the Tmax (oral, 3 to 1000 mg UV-4 dose range, read-out: Median time to reach maximum plasma concentration (tmax), range across dose groups) was 0.5 to 1 h. It also gave a half-life (oral, Phase 1a study, 3 to 1000 mg, read-out: Mean half-life, range across dose groups) of 8.14 to 12 h, an AUC(0-inf) [1] of 0.0956 µg·h/mL and a Cmax [1] of 0.0224 µg/mL. The half-life (po, 3 mg, 3 mg single oral dose, Ar Mean, read-out: t1/2 (converted)) was 10.7 h, the AUC(0-inf) (po, 3 mg, 3 mg single oral dose, Arithmetic Mean) was 0.0956 µg·h/mL and the Cmax (po, 3 mg, 3 mg single oral dose, Geo Mean) was 0.0221 µg/mL. For the same compound, the half-life (po, 3 mg, 3 mg single oral dose, Geo Mean, read-out: t1/2 (converted)) was 10.3 h, the AUC(0-inf) (po, 3 mg, 3 mg single oral dose, Geometric Mean) was 0.0946 µg·h/mL and the Tmax (po, 3 mg, 3 mg single oral dose, median, read-out: tmax) was 0.5 h. The Cmax (po, 10 mg, 10 mg single oral dose, Ar Mean) was 0.0846 µg/mL, the half-life (po, 10 mg, 10 mg single oral dose, Ar Mean, read-out: t1/2 (converted)) was 12 h and the AUC(0-inf) (po, 10 mg, 10 mg single oral dose, Arithmetic Mean) was 0.431 µg·h/mL. It also gave a Cmax (po, 10 mg, 10 mg single oral dose, Geo Mean) of 0.0826 µg/mL, a half-life (po, 10 mg, 10 mg single oral dose, Geo Mean, read-out: t1/2 (converted)) of 11.9 h and an AUC(0-inf) (po, 10 mg, 10 mg single oral dose, Geometric Mean) of 0.42 µg·h/mL. It also gave a Tmax (po, 10 mg, 10 mg single oral dose, median, read-out: tmax) of 1 h, a Cmax (po, 30 mg, 30 mg single oral dose, Ar Mean) of 0.292 µg/mL and a half-life (po, 30 mg, 30 mg single oral dose, Ar Mean, read-out: t1/2 (converted)) of 10 h. The AUC(0-inf) (po, 30 mg, 30 mg single oral dose, Arithmetic Mean) was 1.26 µg·h/mL, the Cmax (po, 30 mg, 30 mg single oral dose, Geo Mean) was 0.289 µg/mL and the half-life (po, 30 mg, 30 mg single oral dose, Geo Mean, read-out: t1/2 (converted)) was 10 h. For the same compound, the AUC(0-inf) (po, 30 mg, 30 mg single oral dose, Geometric Mean) was 1.26 µg·h/mL, the Tmax (po, 30 mg, 30 mg single oral dose, median, read-out: tmax) was 0.5 h and the Cmax (po, 90 mg, 90 mg single oral dose, Ar Mean) was 0.946 µg/mL. The half-life (po, 90 mg, 90 mg single oral dose, Ar Mean, read-out: t1/2 (converted)) was 10.4 h, the AUC(0-inf) (po, 90 mg, 90 mg single oral dose, Arithmetic Mean) was 3.73 µg·h/mL and the Cmax (po, 90 mg, 90 mg single oral dose, Geo Mean) was 0.9 µg/mL. It also gave a half-life (po, 90 mg, 90 mg single oral dose, Geo Mean, read-out: t1/2 (converted)) of 10.2 h, an AUC(0-inf) (po, 90 mg, 90 mg single oral dose, Geometric Mean) of 3.7 µg·h/mL and a Tmax (po, 90 mg, 90 mg single oral dose, median, read-out: tmax) of 0.5 h. The Cmax (po, 180 mg, 180 mg single oral dose, Ar Mean) was 2.15 µg/mL, the half-life (po, 180 mg, 180 mg single oral dose, Ar Mean, read-out: t1/2 (converted)) was 8.7 h and the AUC(0-inf) (po, 180 mg, 180 mg single oral dose, Arithmetic Mean) was 7.11 µg·h/mL. For the same compound, the Cmax (po, 180 mg, 180 mg single oral dose, Geo Mean) was 2.06 µg/mL, the half-life (po, 180 mg, 180 mg single oral dose, Geo Mean, read-out: t1/2 (converted)) was 8.7 h and the AUC(0-inf) (po, 180 mg, 180 mg single oral dose, Geometric Mean) was 7.09 µg·h/mL. The Tmax (po, 180 mg, 180 mg single oral dose, median, read-out: tmax) was 0.8 h, the Cmax (po, 360 mg, 360 mg single oral dose, Ar Mean) was 4.57 µg/mL and the half-life (po, 360 mg, 360 mg single oral dose, Ar Mean, read-out: t1/2 (converted)) was 8.1 h. For the same compound, the AUC(0-inf) (po, 360 mg, 360 mg single oral dose, Arithmetic Mean) was 13.8 µg·h/mL, the Cmax (po, 360 mg, 360 mg single oral dose, Geo Mean) was 4.49 µg/mL and the half-life (po, 360 mg, 360 mg single oral dose, Geo Mean, read-out: t1/2 (converted)) was 8.1 h. For the same compound, the AUC(0-inf) (po, 360 mg, 360 mg single oral dose, Geometric Mean) was 13.7 µg·h/mL, the Tmax (po, 360 mg, 360 mg single oral dose, median, read-out: tmax) was 0.5 h and the Cmax (po, 720 mg, 720 mg single oral dose, Ar Mean) was 9.93 µg/mL. For the same compound, the half-life (po, 720 mg, 720 mg single oral dose, Ar Mean, read-out: t1/2 (converted)) was 8.2 h, the AUC(0-inf) (po, 720 mg, 720 mg single oral dose, Arithmetic Mean) was 32.9 µg·h/mL and the Cmax (po, 720 mg, 720 mg single oral dose, Geo Mean) was 9.76 µg/mL. The half-life (po, 720 mg, 720 mg single oral dose, Geo Mean, read-out: t1/2 (converted)) was 8.2 h, the AUC(0-inf) (po, 720 mg, 720 mg single oral dose, Geometric Mean) was 32.8 µg·h/mL and the Tmax (po, 720 mg, 720 mg single oral dose, median, read-out: tmax) was 0.8 h. It also gave a Cmax (po, 1000 mg, 1000 mg single oral dose, Ar Mean) of 13.1 µg/mL, a half-life (po, 1000 mg, 1000 mg single oral dose, Ar Mean, read-out: t1/2 (converted)) of 8.8 h and an AUC(0-inf) (po, 1000 mg, 1000 mg single oral dose, Arithmetic Mean) of 43.1 µg·h/mL. It also gave a Cmax (po, 1000 mg, 1000 mg single oral dose, Geo Mean) of 13 µg/mL, a half-life (po, 1000 mg, 1000 mg single oral dose, Geo Mean, read-out: t1/2 (converted)) of 8.6 h and an AUC(0-inf) (po, 1000 mg, 1000 mg single oral dose, Geometric Mean) of 42.8 µg·h/mL. The Tmax (po, 1000 mg, 1000 mg single oral dose, median, read-out: tmax) was 1 h and the “Time over which UV-4 plasma concentrations were quantifiable” value (doses of 10 mg or higher, entire collection interval) was 48 h.
